Results on five substances are retold here after PMC10311245, “Novel leaderless bacteriocin geobacillin 6 from thermophilic bacterium Parageobacillus thermoglucosidasius” (Frontiers in Microbiology, 2023).

No end group written: not given here.

The subject of series [1] is P. genomospecies 1 strain NUB36187. The following applies: thermophilic bacterium; ref Kaunietis et al., 2019; cited from earlier work. From the text: (§1) For comparison, previous studies have shown that pallidocin, a glycocin-type bacteriocin produced by thermophilic bacteria A. pallidus strain 8, was active in the pM range against other thermophiles, and a 2.4 pM concentration of pallidocin inhibited the growth of thermophilic bacterium P. genomospecies 1 strain NUB36187 ([Kaunietis et al., 2019]). Other leaderless bacteriocins are active in the μM and nM ranges ([Fujita et al., 2007]; [Iwatani et al., 2007]) and have a broad spectrum of activity.

The conditions of series [2]: CD spectroscopy, aqueous buffers; reversible two-state conversion between helical and unfolded forms; ref Hammond et al., 2020; cited from earlier work. The source says: A recent study using the CD spectroscopy method confirmed the formation of helical structures in epidermicin NI01 and aureocin A53 in aqueous buffers. […] Due to these interesting findings, we decided to employ a thermal shift assay, also known as differential scanning fluorimetry (DSF), to analyze the thermal denaturation of Geo6 under different pH ranges and temperatures. Additionally, to the best of our knowledge, this ...

In another series the test system is B. campestris ATCC 43754. The following applies: ref Acedo et al., 2016; cited from earlier work.
Excerpt: as §1

The next series relates to L. lactis ATCC 19257. The following applies: ref Acedo et al., 2016; cited from earlier work.
Excerpt: as §1

Another series deals with B. coagulans JCM 2257^T. The conditions noted are these: ref Iwatani et al., 2007; cited from earlier work.
Excerpt: as §1

Another series deals with Escherichia coli JM109. The following applies: ref Iwatani et al., 2007; cited from earlier work.
Excerpt: as §1

In series [3] the test system is L. sakei subsp. sakei JCM 1157^T. The following applies: ref Iwatani et al., 2007; cited from earlier work.
Excerpt: as §1

For series [4], the system named is P. dextrinicus JCM 5887^T. The conditions noted are these: ref Iwatani et al., 2007; cited from earlier work.
Excerpt: as §1

Series [5] deals with Geobacillus kaustophilus HTA 426. The series is classed as cell-based. The procedure: (§2) MICs of Geo6 were determined according to the method of [Wiegand et al. (2008)] with some modifications. An indicator strain sensitive to bacteriocin was grown overnight at 55°C in a thermoshaker. The next day it was inoculated (2–3%) into fresh medium and cultivated until OD reached 1–1.5. The culture was further diluted and adjusted to 1 × 10^6 CFU/ml. A 95 μl of the medium was mixed with 5 μl of Geo6 and serial two-fold dilutions of suspension were made with the medium. Next, diluted mixtures were dispersed (100 μl) in a 96-well plate. A volume of 100 μl of previously prepared cell suspension was dispersed and mixed with the diluted bacteriocin in every well on the plate. As a result, the final volume of suspension in the well containing diluted bacteriocin and bacteria cells was 200 μl and the final concentration of the bacteria culture in the well was 5 × 10^5 CFU/ml. For each experiment, three replicates were made in the plate. Wells with positive controls contained a mixture of medium (95 μl) and Geo6 (5 μl), and negative controls contained bacteria suspension (5 × 10^5 CFU/ml) in the medium (100 μl). The plate was placed into a bag to prevent medium evaporation and put into a box, which was incubated overnight at 55°C in a thermoshaker. The next day, the growth inhibition was evaluated in the wells of the plate.

Series [6] relates to Geobacillus lituanicus DSM 15325^T. The class given is cell-based. The procedure:
as §2

The test system of series [7] is Geobacillus thermodenitrificans DSM 465^T. The class given is cell-based. The procedure: as §2
In series [8] the test system is Geobacillus thermoleovorans DSM 5366^T. The class given is cell-based. The procedure:
as §2

Series [9] deals with Parageobacillus toebii DSM 14590^T. The series is classed as cell-based. The procedure: as §2
Series [10] concerns G. kaustophilus HTA 426^T. The series can be described thus: Live/dead assay (membrane integrity, SYTO9 and PI). The series is classed as cell-based, Geobacillus kaustophilus. The following applies: 600 nM Geo6, 30 min, BHI, 55°C; fluorescence microscopy; red = damaged membrane. Here is the method:
An indicator strain G. kaustophilus HTA 426^T sensitive to bacteriocin was grown in BHI medium at 55°C till OD 0.5 was reached. Next, the bacteria culture was treated with 600 nM of Geo6 and further cultivated for 30 min. Then, the cell culture was centrifuged at 3000 ×g for 5 min and further washed two times with 0.9% NaCl solution (centrifuged at 3000 ×g for 5 min). After the last wash, cells were suspended in 0.9% NaCl solution and stained using LIVE/DEAD BacLight Bacterial Viability Kit (Invitrogen) containing SYTO9 and […] according to manufacturers’ recommendations. Cells were incubated in the dark at room temperature for 15 min. Next, cells were centrifuged at 3000 ×g for 5 min and washed two times with 0.9% NaCl solution (centrifuged at 3000 ×g for 5 min). Further, 10 μl of Geo6 treated cells and nontreated control cells suspensions were spotted onto objective slides and examined using a fluorescence microscope using filters FITC (480/500 nm) and Texas Red (490/635 nm).

A short description of series [11]: Bacteriocin thermostability (activity by spot on a lawn assay after incubation). The class given is physicochemical. The following applies: spot on a lawn read-out; for Antibacterial activity retained after heat treatment: two-fold dilutions. The procedure:
[…] After incubation, serial two-fold dilutions of samples were made using medium, and further antibacterial activity of bacteriocin was assessed by spot on a lawn assay.

Series [12] can be described thus: Bacteriocin stability in different pH ranges (activity by spot on a lawn assay after incubation). The series is classed as physicochemical. The following applies: pH range 3–11, 25 mM Britton-Robinson buffer, 1:20, room temperature 2 h, neutralized to pH 7; spot on a lawn read-out. The procedure:
For evaluation of stability at different pH ranges, purified recombinant Geo6 was mixed with 25 mM Britton-Robinson buffer solutions ([Ebihara et al., 2016]) with different pH values in a ratio of 1:20. After incubation at room temperature for 2 h samples were neutralized with NaOH or HCl solutions to pH 7. Further, samples were diluted two-fold using a medium and assessed for antibacterial activity using spot on a lawn assay.

Series [13] can be described thus: Thermal shift assay (differential scanning fluorimetry, SYPRO Orange). The class given is physicochemical. The following applies: DSF, called inconclusive; for Melting temperature (Tm): 20–95°C, triplicate. Here is the method: As an indicator of thermal denaturation in varying pH or other conditions a fluorescent SYPRO Orange dye (Invitrogen) that binds to hydrophobic parts of protein during its unfolding was used in this work. SYPRO Orange 50× stock solution was prepared by diluting 2.5 μl of 5,000× concentrate into 250 μl of deionized (DI) water. A volume of 2.5 μl of 50× SYPRO Orange was aliquoted into a white HardShell 96-well PCR plate (Bio-Rad). Different pH buffer solutions (25 mM Briton-Robinson, pH 3–11; [Bendikienė et al., 2004]) were added to aliquoted SYPRO Orange followed by adding an appropriately diluted solution of purified Geo6 into the wells at a final concentration of 0.25 nmol/ml (1.3 μg/ml). The final volume of the mixture was 25 μl. The negative control was 25 mM of Briton-Robinson buffer solutions in a range of pH 3 to 11, with 2.5 μl of SYPRO Orange. Lysozyme (final concentration of 100 μg/ml) diluted in 25 mM Briton-Robinson buffer (pH 5 and 6) and mixed with 2.5 μl of SYPRO Orange was used as a positive control. A curve experiment for DNA with the elimination of the initial denaturation step at 95°C was used. The melt curve temperature range was set from 20°C to 95°C in increments of 0.5°C for 5 s. Each experimental condition was prepared in triplicate. Thermal shift analysis or differential scanning fluorimetry (DSF) of Geo6 was performed in CFX Touch Real TIME PCR System (Bio-Rad) using CFX Manager (Bio-Rad) software.
(In general: In DSF a fluorescence change marks the thermal transition of the protein.)

In the case of pallidocin, in series [1], the “Concentration that inhibited growth” value is on record as 2.4 pM.
Take epidermicin NI01: the Denaturation temperature in series [2] was 60 °C.
The term MIC denotes the lowest concentration that inhibits growth of the organism. For “aureocin A54 (MSWLNFLKYIAKYGKKAVSAAWKYKGKVLEWLNVGPTLEWVWQKLKKIAGL; UniProt Q8GPI4 1-51, looked up)”, the MIC was 2 µM in the series on B. campestris ATCC 43754 and 0.25 µM with L. lactis ATCC 19257.
Take lacticin Q: the MIC in the series with B. coagulans JCM 2257^T is 0.0016 µM; in series [3] it was 0.0032 µM; in series [4], 0.0073 µM. Besides, in the series with Escherichia coli JM109, the Antibacterial activity result was “No activity was detected”.
Turning to “GMATFLRIVAQLSSKAAKWALDNKDKVLKWIRDGMAIDWIIDKINDIVG [Geo6, geobacillin 6]”, the MIC was determined as 0.293 µM in series [5]; 0.585 µM in [6]; 2.34 µM in series [7]; 0.585 µM in series [8]; 4.45 µM in [9]. For the same substance, in series [10], the “Membrane integrity (SYTO9/PI fluorescence of treated cells)” value is listed as “all the cells exhibited red fluorescence”. For the same substance, the “Antibacterial activity retained after heat treatment” value in [11] (60°C for 2 h) is 100%; in series [11] (70°C for 2 h), 100%; in series [11] (95°C for 6 h) it was “did not abolish its activity”; in series [11] (95°C for 6 h, listed as Geobacillin 6) it was 100%; in series [11] (100°C for 2 h), 100%. In series [11] (room temperature for 24 h), the “Antibacterial activity retained after incubation at room temperature” value is given as 100%. Besides, the “Antibacterial activity retained after incubation at different pH” value in [12] is recorded as 100%. Besides, the “Melting temperature (Tm)” value in [13] (25 mM Briton-Robinson buffer pH 8, 0.25 nmol/ml (1.3 μg/ml)) was “none”; in [13] (25 mM Briton-Robinson buffer pH 9, 0.25 nmol/ml (1.3 μg/ml)) it was 76.75±1.77 °C; in series [13] (25 mM Briton-Robinson buffer pH 10, 0.25 nmol/ml (1.3 μg/ml)), 76.5 °C; in [13] (25 mM Briton-Robinson buffer pH 11, 0.25 nmol/ml (1.3 μg/ml)), 80.5±0.7 °C. For the same substance, the “Melting temperatures (Tm), partial unfolding” value in series [13] (range of pH 9–11, 20–95°C) was 76.5–80.5 °C.
